This passage reports EC50 results from patent publication US9260408B2, “Dihydroquinoline-2-one derivatives” (Hoffmann-La Roche Inc., priority 2011, dated 2016).

The target of one assay is T1, human CYP11B2 (Homo sapiens, UniProt P19099).
T1 construct: expressed in transfected cells
T1 sequence (P19099 25-503): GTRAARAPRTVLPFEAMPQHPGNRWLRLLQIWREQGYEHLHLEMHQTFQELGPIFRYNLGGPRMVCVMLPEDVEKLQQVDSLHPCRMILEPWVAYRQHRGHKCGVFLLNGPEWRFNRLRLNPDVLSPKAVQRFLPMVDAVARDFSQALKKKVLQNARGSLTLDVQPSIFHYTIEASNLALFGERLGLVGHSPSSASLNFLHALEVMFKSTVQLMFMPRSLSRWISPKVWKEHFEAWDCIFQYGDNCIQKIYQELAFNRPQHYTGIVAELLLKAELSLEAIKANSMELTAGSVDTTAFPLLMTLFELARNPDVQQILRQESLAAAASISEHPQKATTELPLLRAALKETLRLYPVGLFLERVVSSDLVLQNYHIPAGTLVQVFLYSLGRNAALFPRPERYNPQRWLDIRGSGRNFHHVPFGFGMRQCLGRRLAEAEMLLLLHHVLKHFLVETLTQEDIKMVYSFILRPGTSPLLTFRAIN
Briefly: G-402 cellular enzyme assay, human CYP11B2 (aldosterone release, HTRF). Type of assay: cell-based. The settings on record: G-402 cells expressing human CYP11B2; 1 μM Deoxycorticosterone. In a few lines: (§1)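 G-402 cells stably expressing human CYP11B2 or CYP11B1, in DMEM/F12 with 2.5% charcoal-treated FCS, were incubated 16 h with compound plus 1 μM deoxycorticosterone (CYP11B2) or 1 μM deoxycortisol (CYP11B1). Aldosterone or cortisol in the supernatant measured by HTRF; EC50 from a 4-parameter MMF fit.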
In general terms: TR-FRET usually uses a lanthanide donor and a delayed reading to cut background.

The target in the next assay is T2, human CYP11B1 (Homo sapiens, UniProt P15538).
T2 construct: expressed in transfected cells
T2 sequence (P15538 25-503): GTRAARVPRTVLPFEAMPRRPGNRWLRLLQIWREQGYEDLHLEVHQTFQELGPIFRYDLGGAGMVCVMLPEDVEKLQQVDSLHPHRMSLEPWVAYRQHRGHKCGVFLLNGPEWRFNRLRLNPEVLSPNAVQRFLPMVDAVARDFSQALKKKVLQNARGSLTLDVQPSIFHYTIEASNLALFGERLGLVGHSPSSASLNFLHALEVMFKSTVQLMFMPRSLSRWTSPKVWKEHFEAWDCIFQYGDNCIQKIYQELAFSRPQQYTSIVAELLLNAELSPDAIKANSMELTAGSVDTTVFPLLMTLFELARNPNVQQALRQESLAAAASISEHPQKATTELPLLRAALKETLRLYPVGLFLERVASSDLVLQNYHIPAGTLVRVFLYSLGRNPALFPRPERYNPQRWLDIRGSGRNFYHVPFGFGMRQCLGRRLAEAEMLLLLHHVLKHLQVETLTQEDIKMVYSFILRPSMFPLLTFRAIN
Description: G-402 cellular enzyme assay, human CYP11B1 (cortisol release, HTRF). Format: cell-based. The settings on record: G-402 cells expressing human CYP11B1; 1 μM Deoxycortisol. In a few lines: as §1

In general, EC50 refers to the concentration that produces a half-maximal response. Read a high EC50 as lower potency in that assay.

Structures can show the parent of a compound that is named as a salt.

`CN(Cc1cncc(-c2cc3c(cc2F)N(C)C(=O)CC3)c1)C(=O)c1ncccc1Cl` [Example 200, 3-Chloro-pyridine-2-carboxylic acid [5-(7-fluoro-1-methyl-2-oxo-1,2,3,4-tetrahydro-quinolin-6-yl)-pyridin-3-ylmethyl]-methyl-amide]: the EC50 at human CYP11B2 amounted to 1 nM; on human CYP11B1, 31 nM.

Consider `CN1C(=O)CCc2cc(-c3cncc(C4(N(C)C(=O)c5ncccc5Cl)CC4)c3)ccc21` [Example 201, 3-Chloro-pyridine-2-carboxylic acid methyl-{1-[5-(1-methyl-2-oxo-1,2,3,4-tetrahydro-quinolin-6-yl)-pyridin-3-yl]-cyclopropyl}-amide], for which the figures for the EC50 at human CYP11B2 and on human CYP11B1 were 24 nM and 436 nM, respectively.

In the case of `CCS(=O)(=O)NCc1cncc(-c2cc(Cl)c3c(c2)CCC(=O)N3)c1` [Example 203, Ethanesulfonic acid [5-(8-chloro-2-oxo-1,2,3,4-tetrahydro-quinolin-6-yl)-pyridin-3-ylmethyl]-amide], the values for the EC50 at human CYP11B2 and at human CYP11B1 were 83 nM and 4960 nM, respectively.

Take `O=C1CCc2cc(-c3cncc(CNC(=O)c4ncccc4Cl)c3)cc(Cl)c2N1` [Example 204, 3-Chloro-pyridine-2-carboxylic acid [5-(8-chloro-2-oxo-1,2,3,4-tetrahydro-quinolin-6-yl)-pyridin-3-ylmethyl]-amide]: the concentration giving a half-maximal response (EC50) is 20 nM at human CYP11B2 and 2240 nM on human CYP11B1.

In the case of `Cc1noc(C)c1C(=O)NCc1cncc(-c2cc(Cl)c3c(c2)CCC(=O)N3)c1` [Example 205, 3,5-Dimethyl-isoxazole-4-carboxylic acid [5-(8-chloro-2-oxo-1,2,3,4-tetrahydro-quinolin-6-yl)-pyridin-3-ylmethyl]-amide], the EC50 at human CYP11B2 worked out at 97 nM; on human CYP11B1, 4030 nM.

For `CCC1(NCc2cncc(-c3ccc4c(c3)CCC(=O)N4C)c2)COC1` [Example 206, 6-{5-[(3-Ethyl-oxetan-3-ylamino)-methyl]-pyridin-3-yl}-1-methyl-3,4-dihydro-1H-quinolin-2-one], the EC50 on human CYP11B2 was found to be 10 nM; at human CYP11B1, 237 nM.

As for `CCS(=O)(=O)NCc1cncc(-c2cc3c(cc2Cl)N(C)C(=O)CC3)c1` [Example 207, Ethanesulfonic acid [5-(7-chloro-1-methyl-2-oxo-1,2,3,4-tetrahydro-quinolin-6-yl)-pyridin-3-ylmethyl]-amide], the EC50 turned out to be 44 nM on human CYP11B2 and 2540 nM on human CYP11B1.

With `CCS(=O)(=O)NCc1cncc(-c2cc(F)c3c(c2)CCC(=O)N3C)c1` [Example 208, Ethanesulfonic acid [5-(8-fluoro-1-methyl-2-oxo-1,2,3,4-tetrahydro-quinolin-6-yl)-pyridin-3-ylmethyl]-amide], the concentration giving a half-maximal response (EC50) at human CYP11B2 stood at 59 nM; on human CYP11B1, 4200 nM.

On to `CCS(=O)(=O)NCc1cncc(-c2cc(Cl)c3c(c2)CCC(=O)N3C)c1` [Example 209, Ethanesulfonic acid [5-(8-chloro-1-methyl-2-oxo-1,2,3,4-tetrahydro-quinolin-6-yl)-pyridin-3-ylmethyl]-amide], for which the figures for the EC50 at human CYP11B2 and at human CYP11B1 were 162 nM and 7540 nM, respectively.

Regarding `CCS(=O)(=O)NCc1cncc(-c2ccc3c(c2F)CCC(=O)N3C)c1` [Example 210, Ethanesulfonic acid [5-(5-fluoro-1-methyl-2-oxo-1,2,3,4-tetrahydro-quinolin-6-yl)-pyridin-3-ylmethyl]-amide], the concentration for a half-maximal effect (EC50) on human CYP11B2 came to 30 nM; on human CYP11B1, 1340 nM.

In the case of `CCS(=O)(=O)N(C)Cc1cncc(-c2cc3c(cc2F)N(C)C(=O)CC3)c1` [Example 211, Ethanesulfonic acid [5-(7-fluoro-1-methyl-2-oxo-1,2,3,4-tetrahydro-quinolin-6-yl)-pyridin-3-ylmethyl]-methyl-amide], the EC50 on human CYP11B2 was 5 nM; on human CYP11B1, 119 nM.

For `CCC(=O)NCc1cncc(-c2cc3c(cc2F)N(C)C(=O)CC3)c1` [Example 212, N-[5-(7-Fluoro-1-methyl-2-oxo-1,2,3,4-tetrahydro-quinolin-6-yl)-pyridin-3-ylmethyl]-propionamide], the EC50 came out at 51 nM on human CYP11B2 and 4830 nM on human CYP11B1.

Turning to `CC(C)(C)OC(=O)N1CC[C@H](Oc2cncc(-c3ccc4c(c3)CCC(=O)N4)c2)C1` [Example 214, (S)-3-[5-(2-oxo-1,2,3,4-tetrahydro-quinolin-6-yl)-pyridin-3-yloxy]-pyrrolidine-1-carboxylic acid tert-butyl ester], the results for the EC50 at human CYP11B2 and at human CYP11B1 were 30 nM and 104 nM, respectively.

For the molecule `CN(Cc1cncc(-c2cc(Cl)c3c(c2)CCC(=O)N3)c1)C(=O)c1ncccc1Cl` [Example 216, 3-Chloro-pyridine-2-carboxylic acid [5-(8-chloro-2-oxo-1,2,3,4-tetrahydro-quinolin-6-yl)-pyridin-3-ylmethyl]-methyl-amide], the figures for the EC50 at human CYP11B2 and on human CYP11B1 were 42 nM and 879 nM, respectively.

Turning to `CN1C(=O)CCc2cc(-c3cncc(CN[S@+]([O-])C(C)(C)C)c3Cl)ccc21` [Example 217, (R)-2-Methyl-propane-2-sulfinic acid [4-chloro-5-(1-methyl-2-oxo-1,2,3,4-tetrahydro-quinolin-6-yl)-pyridin-3-ylmethyl]-amide], the EC50 on human CYP11B2 came to 29 nM; on human CYP11B1 it was 1260 nM.

`CN1C(=O)CCc2cc(-c3cncc(CN)c3Cl)ccc21` [Example 218, 6-(5-Aminomethyl-4-chloro-pyridin-3-yl)-1-methyl-3,4-dihydro-1H-quinolin-2-one hydrochloride]: the half-maximal effective concentration (EC50) worked out at 29 nM at human CYP11B2 and 1200 nM at human CYP11B1.

Turning to `Cc1noc(C)c1C(=O)NCc1cncc(-c2ccc3c(c2)CCC(=O)N3C)c1Cl` [Example 219, 3,5-Dimethyl-isoxazole-4-carboxylic acid [4-chloro-5-(1-methyl-2-oxo-1,2,3,4-tetrahydro-quinolin-6-yl)-pyridin-3-ylmethyl]-amide], the EC50 on human CYP11B2 turned out to be 12 nM; at human CYP11B1, 557 nM.

As to `CN1C(=O)CCc2cc(-c3cncc(CNC(=O)c4ncccc4Cl)c3Cl)ccc21` [Example 220, 3-Chloro-pyridine-2-carboxylic acid [4-chloro-5-(1-methyl-2-oxo-1,2,3,4-tetrahydro-quinolin-6-yl)-pyridin-3-ylmethyl]-amide], the EC50 at human CYP11B2 came to 2 nM; at human CYP11B1 it was 40 nM.

Consider `Cc1c(CN)cncc1-c1ccc2c(c1)CCC(=O)N2C` [Example 222, 6-(5-Aminomethyl-4-methyl-pyridin-3-yl)-1-methyl-3,4-dihydro-1H-quinolin-2-one hydrochloride], for which the EC50 on human CYP11B2 stood at 4 nM; on human CYP11B1 it was 1010 nM.

Regarding `Cc1noc(C)c1C(=O)NCc1cncc(-c2ccc3c(c2)CCC(=O)N3C)c1C` [Example 223, 3,5-Dimethyl-isoxazole-4-carboxylic acid [4-methyl-5-(1-methyl-2-oxo-1,2,3,4-tetrahydro-quinolin-6-yl)-pyridin-3-ylmethyl]-amide], the figures for the EC50 at human CYP11B2 and at human CYP11B1 were 36 nM and 2860 nM, respectively.

On to `Cc1c(CNC(=O)c2ncccc2Cl)cncc1-c1ccc2c(c1)CCC(=O)N2C` [Example 224, 3-Chloro-pyridine-2-carboxylic acid [4-methyl-5-(1-methyl-2-oxo-1,2,3,4-tetrahydro-quinolin-6-yl)-pyridin-3-ylmethyl]-amide], for which the 50% effective concentration (EC50) at human CYP11B2 came to 6 nM; at human CYP11B1, 173 nM.

In the case of `Cc1c(CN[S@+]([O-])C(C)(C)C)cncc1-c1cc2c(cc1F)N(C)C(=O)CC2` [Example 225, (R)-2-Methyl-propane-2-sulfinic acid [5-(7-fluoro-1-methyl-2-oxo-1,2,3,4-tetrahydro-quinolin-6-yl)-4-methyl-pyridin-3-ylmethyl]-amide], the EC50 at human CYP11B2 came out at 6 nM; at human CYP11B1, 691 nM.

Consider `Cc1c(CN)cncc1-c1cc2c(cc1F)N(C)C(=O)CC2` [Example 226, 6-(5-Aminomethyl-4-methyl-pyridin-3-yl)-7-fluoro-1-methyl-3,4-dihydro-1H-quinolin-2-one hydrochloride], for which the EC50 on human CYP11B2 amounted to 11 nM; at human CYP11B1, 1770 nM.

Regarding `Cc1c(CNC(=O)c2ncccc2Cl)cncc1-c1cc2c(cc1F)N(C)C(=O)CC2` [Example 227, 3-Chloro-pyridine-2-carboxylic acid [5-(7-fluoro-1-methyl-2-oxo-1,2,3,4-tetrahydro-quinolin-6-yl)-4-methyl-pyridin-3-ylmethyl]-amide], the EC50 at human CYP11B2 came out at 4 nM; at human CYP11B1, 157 nM.
